Assay: Inhibition of PDGFR-beta driven proliferation of rat A10 cells after 68 hrs in presence of rat recombinant PDGF-BB by cell titer-glo luminescence assay

Compound | IC50
Cc1ccc(NC(=O)c2ccc(CN3CCN(C)CC3)cc2)cc1Nc1nccc(-c2cccnc2)n1 | 162 nM
Cn1cc(-c2ccn3c(C(=O)Nc4cc(C(=O)NCCN5CCCC5(C)C)ccc4F)cnc3c2)cn1 | 1.7 nM
Cn1nccc1-c1ccn2c(C(=O)Nc3cc(C(=O)NCc4ccc(F)c(F)c4)ccc3F)cnc2c1 | 3 nM
CN1CCN(c2ccccc2CNC(=O)c2ccc(F)c(NC(=O)c3cnc4cc(-c5cnn(C)c5)ccn34)c2)CC1 | 3.6 nM
CN1CCN(c2ccccc2CNC(=O)c2ccc(F)c(NC(=O)c3cnc4cc(-c5cc[nH]n5)ccn34)c2)CC1 | 19 nM
Cc1ncc(C(=O)NCCN2CCCC2(C)C)cc1NC(=O)c1cnn2cc(-c3cnn(C)c3)ccc12 | 13 nM
CN1CCN(c2ccccc2CNC(=O)c2ccc(F)c(NC(=O)c3cnc4ccccn34)c2)CC1 | 36 nM
CN(CCNC(=O)c1ccc(F)c(NC(=O)c2cnc3cc(-c4ccnn4C)ccn23)c1)C(C)(C)C | 23 nM
C[C@@H]1CCC[C@H](C)N1CCNC(=O)c1ccc(F)c(NC(=O)c2cnc3cc(-c4ccnn4C)ccn23)c1 | 8.7 nM
CN1CCN(c2ccccc2CNC(=O)c2ccc(F)c(NC(=O)c3cnc4cc(-c5cccnc5)ccn34)c2)CC1 | 7.9 nM
Cc1ncc(C(=O)NCc2ccccc2N2CCN(C)CC2)cc1NC(=O)c1cnn2cc(-c3ccnn3C)ccc12 | 35 nM
Cc1ccc(C(=O)NCc2ccccc2)cc1NC(=O)c1cnn2ccccc12 | 12 nM
Cn1nccc1-c1ccn2c(C(=O)Nc3cc(C(=O)NCC4CCC(C)(C)O4)ccc3F)cnc2c1 (configuration not stated) | 2.7 nM
Cn1nccc1-c1ccn2c(C(=O)Nc3cc(C(=O)NCCN4CCCC4(C)C)ccc3F)cnc2c1 | 9.5 nM
CCN(CCNC(=O)c1ccc(F)c(NC(=O)c2cnc3cc(-c4ccnn4C)ccn23)c1)C(C)(C)C | 22 nM
CN1CCN(c2ccccc2CNC(=O)c2ccc(F)c(NC(=O)c3cnn4cc(-c5ccnn5C)ccc34)c2)CC1 | 10 nM
CN1CCN(c2ccccc2CNC(=O)c2ccc(F)c(NC(=O)c3cnc4cc(-c5ccnn5C)ccn34)c2)CC1 | 9.2 nM
